The text below walks through data of PubChem BioAssay (NCI).

Holding throughout (experiment): growth of human tumour cells (NCI), 48 h
The test system of experiment [1] is HCC-2998 colon.
Experiment [2] concerns OVCAR-8 ovarian.
Experiment [3] has as its system 786-0 renal.
Experiment [4] has as its system SF-539 CNS.
Experiment [5] relates to RXF 393 renal.
Experiment [6] relates to NCI-H226 lung.
For experiment [7], the system named is SK-OV-3 ovarian.
Experiment [8] deals with SR leukemia.
Experiment [9] has as its system HCT-116 colon.
In experiment [10] the test system is SF-295 CNS.
Experiment [11] deals with IGROV1 ovarian.
For experiment [12], the system named is HOP-92 NSCLC.
For experiment [13], the system named is COLO 205 colon.
Experiment [14] concerns NCI-H522 lung.
The subject of experiment [15] is CAKI-1 renal.

SMILES strings stand for the structures.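 48-hour exposure; five concentrations; linearly interpolated endpoints. GI50: concentration for 50% inhibition of growth. At the TGI there is no net growth.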

With `CCN(N=O)C1C2(CCCC2)NC(=O)C12CCCC2` (stereo not drawn), the TGI in experiment [1], in experiment [2], in experiment [3], in experiment [4], in experiment [5] and in experiment [6] was more than 100 µM in each case. Besides, the TGI in experiment [7], in [8], in experiment [9], in [10] and in [11] was more than 100 µM throughout.
On to `Cc1c(-c2coc(-c3ccc([N+](=O)[O-])cc3)n2)c(=O)n(-c2ccccc2)n1C`, for which the TGI in experiment [1], in [2], in [3], in experiment [12], in [13] and in experiment [4] was more than 100 µM throughout. Also, the TGI in [6], in experiment [14], in experiment [7], in experiment [9], in experiment [10] and in [11] was more than 100 µM in each case.
Consider `COC(=O)C(=O)C(C(=O)OC)C(=O)C(=O)Nc1cc(Cl)c(C)cc1S(=O)(=O)O` (stereo not drawn), for which the TGI in experiment [1], in experiment [2], in experiment [3], in experiment [13], in [4] and in experiment [5] was more than 100 µM in each case. The TGI in experiment [6], in experiment [14], in experiment [15], in experiment [7], in experiment [8] and in experiment [9] was more than 100 µM in each case. Besides, the TGI in [10] and in experiment [11] was more than 100 µM each time.
Turning to `COc1cc2ccnc(C#N)c2cc1OCc1ccccc1`, the TGI in experiment [1], in [2], in experiment [3], in experiment [4], in experiment [14] and in [15] was more than 100 µM each time. Besides, the TGI in experiment [9] and in [10] was more than 100 µM each time.
With `O=C(O)C12C3CCC(C3)C1(C(=O)O)C1CCC2C1` (stereo not drawn), the TGI in experiment [1], in experiment [2], in experiment [3], in [12], in experiment [13] and in experiment [5] was more than 100 µM throughout. The TGI was more than 100 µM in experiment [6]; 54.9 µM in [14]; more than 100 µM in [15]; more than 100 µM in experiment [7]; more than 100 µM in experiment [8]; more than 100 µM in experiment [9]. Also, the TGI in experiment [10] and in experiment [11] was more than 100 µM each time.
With `O=C(c1ccccc1)n1cc(/C=C/[N+](=O)[O-])c2ccccc21`, the TGI in [2] was more than 100 µM; in experiment [3] it was 39 µM; in [12], 54.1 µM; in experiment [13], 59.2 µM; in experiment [4], 46.4 µM; in [5] it was 36.9 µM. Also, the TGI is 28.8 µM in [14]; more than 100 µM in experiment [15]; more than 100 µM in experiment [7]; 44.9 µM in experiment [8]; 32 µM in experiment [9]; more than 100 µM in [10]. For the same compound, in experiment [11], the TGI turned out to be 54.7 µM.
For the compound `CN(C)CC1(Cc2ccccc2)CC/C(=C\c2ccccc2)C1=O` (stereo not drawn), the TGI in [1] is 40.7 µM; in experiment [2], more than 100 µM; in [3] it was more than 100 µM; in [12], more than 100 µM; in [13], 89.6 µM; in experiment [4], 60.3 µM. The TGI in experiment [5] is 92.8 µM; in experiment [6], more than 100 µM; in experiment [14] it was 30.1 µM; in [15] it was more than 100 µM; in experiment [8] it was 60.4 µM; in experiment [9], more than 100 µM. Also, the TGI in experiment [10] and in experiment [11] was more than 100 µM in each case.
For `O=C1CCC(=O)c2ccccc2N1`, the TGI in [1], in experiment [2], in experiment [3], in [12], in experiment [13] and in experiment [4] was more than 100 µM in each case. Moreover, the TGI in experiment [5], in experiment [6], in experiment [14], in [15], in experiment [7] and in experiment [9] was more than 100 µM throughout. In addition, the TGI in experiment [10] and in [11] was more than 100 µM in each case.
On to `CN1CCS(=O)(=O)NC(Cc2ccccc2)C(=O)N2CCCC2C1=O` (stereo not drawn), for which the TGI in [1], in experiment [2], in experiment [3], in experiment [13], in experiment [4] and in [6] was more than 100 µM throughout. Further, the TGI in experiment [14], in [15], in experiment [7], in [9], in [10] and in experiment [11] was more than 100 µM throughout.
Consider `NNC(=O)/C(NC(=O)c1ccccc1)=C(\N)c1cccc([N+](=O)[O-])c1`, for which the TGI in [1], in experiment [2], in [3], in [12], in experiment [13] and in [4] was more than 100 µM each time. The TGI in experiment [5], in experiment [6], in experiment [14], in [15], in experiment [7] and in experiment [8] was more than 100 µM each time. Besides, the TGI in [9], in experiment [10] and in experiment [11] was more than 100 µM each time.
With `c1cc2c(cc1C1OCC3C(c4ccc5c(c4)OCO5)OCC13)OCO2` (stereo not drawn), the TGI in [1], in experiment [2], in experiment [3], in [12], in experiment [13] and in experiment [4] was more than 100 µM in each case. In addition, the TGI in experiment [5], in experiment [6], in [14], in [7], in experiment [9] and in experiment [10] was more than 100 µM throughout. In addition, in experiment [11], the TGI was more than 100 µM.
As to `Cc1ccc(S(=O)(=O)c2ccc(C)cc2[N+](=O)[O-])c([N+](=O)[O-])c1`, the TGI in [1], in [2], in experiment [3], in experiment [13], in experiment [4] and in experiment [5] was more than 100 µM throughout. For the same compound, the TGI in [6], in experiment [14], in experiment [8], in experiment [9], in experiment [10] and in experiment [11] was more than 100 µM throughout.
As for `CCOC(=O)/C(C1=NCCN1C)=C(\O)c1ccccc1`, the TGI in experiment [1], in experiment [2], in experiment [3], in experiment [13], in experiment [5] and in [6] was more than 100 µM each time. Also, the TGI in experiment [14], in experiment [15], in [8], in experiment [9], in experiment [10] and in experiment [11] was more than 100 µM each time.
Consider `N#Cc1ccc(C2OCC3CC=CCC3CO2)cc1` (stereo not drawn), for which the TGI in [1], in experiment [2], in [3], in experiment [13], in [4] and in experiment [5] was more than 100 µM in each case. Also, the TGI in experiment [6], in experiment [14], in experiment [15], in experiment [7], in [8] and in [9] was more than 100 µM each time. Besides, the TGI in experiment [10] and in [11] was more than 100 µM each time.
Regarding `N#CCCC(C#N)(C#N)CCC#N`, the TGI in experiment [1], in experiment [2], in [3], in experiment [13], in [4] and in [6] was more than 100 µM throughout. Further, the TGI in [14], in experiment [7], in experiment [8], in [9], in [10] and in [11] was more than 100 µM each time.
For `O=c1cccccc1[O-].O=c1cccccc1[O-].O=c1cccccc1[O-].[Nd+3]`, the TGI is more than 100 µM in experiment [1]; 90.7 µM in experiment [2]; more than 100 µM in experiment [3]; more than 100 µM in [12]; 74.9 µM in experiment [4]; 50.2 µM in experiment [5]. In addition, the TGI is more than 100 µM in experiment [6]; 74.4 µM in experiment [14]; more than 100 µM in experiment [15]; more than 100 µM in [7]; 68.4 µM in experiment [9]; more than 100 µM in experiment [10]. Also, the TGI in experiment [11] is more than 100 µM. For the same compound, the GI50 in experiment [4] is 19.7 µM.
In the case of `CC1=C2CC[C@@]3(C)C(=CCC3O)C2(C)CCC1=O` (stereo partly drawn), the TGI in experiment [1], in experiment [2], in [3], in experiment [12], in experiment [13] and in experiment [4] was more than 100 µM each time. The TGI in experiment [5], in [6], in [14], in [15], in experiment [7] and in [8] was more than 100 µM throughout. The TGI in [9], in experiment [10] and in [11] was more than 100 µM each time.
With `C#CN1C(=O)c2c(c(-c3ccccc3)c(-c3ccc(Oc4ccc(-c5c(-c6ccccc6)c6c(c(-c7ccccc7)c5-c5ccccc5)C(=O)N(C#C)C6=O)cc4)cc3)c(-c3ccccc3)c2-c2ccccc2)C1=O`, the TGI in experiment [1], in [2], in experiment [3], in [12], in [13] and in experiment [4] was more than 100 µM each time. Further, the TGI in experiment [5], in experiment [14], in experiment [9], in experiment [10] and in experiment [11] was more than 100 µM in each case.
In the case of `COc1cc(C2C(C(=O)NCc3ccccc3)=C(C)NC(C)=C2C(=O)NCc2ccccc2)ccc1O`, the TGI in [1] was 51.6 µM; in experiment [2], more than 100 µM; in experiment [3], more than 100 µM; in experiment [12], 89.2 µM; in experiment [4], 41 µM; in [5], 77.8 µM. Besides, the TGI in experiment [6] was more than 100 µM; in experiment [15], 75.1 µM; in experiment [8], 54.4 µM; in [9] it was more than 100 µM; in experiment [10], more than 100 µM; in experiment [11], more than 100 µM.
With `CN1CCCS/C1=C1/SC(=S)N(c2ccccc2)C1=O`, the TGI in experiment [2], in [3], in experiment [12], in [13], in experiment [4] and in experiment [5] was more than 100 µM each time. For the same compound, the TGI in experiment [6], in experiment [14], in experiment [15], in experiment [7], in [8] and in [9] was more than 100 µM throughout. The TGI in experiment [10] and in experiment [11] was more than 100 µM each time.
Consider `O=c1[nH]c(=O)n([C@H]2C[C@@H](CO)[C@@H](O)C2)cc1I`, for which the TGI in [1], in experiment [2], in experiment [3], in experiment [12], in experiment [13] and in experiment [4] was more than 100 µM throughout. Besides, the TGI in experiment [6], in [14], in experiment [15], in experiment [7], in experiment [9] and in experiment [11] was more than 100 µM each time.
